We go through seven cell lines from the supplement of paper PMC10307832.

What all share (assay): relative viability (nuclei count vs DMSO), 5 days (fraction); higher = more cells survive
Compound in the assay “Lestaurtinib + Olaparib”: C[C@]12O[C@H](C[C@]1(O)CO)n1c3ccccc3c3c4c(c5c6ccccc6n2c5c31)CNC4=O [Lestaurtinib] + O=C(c1cc(Cc2n[nH]c(=O)c3ccccc23)ccc1F)N1CCN(C(=O)C2CC2)CC1 [Olaparib] (partner 8 µM)
The method, boiled down:
(§1)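 Five library-drug doses in √10 steps were combined with a fixed anchor-drug dose, or a single drug was given alone, by pin tool to lung cancer cell lines in 1536-well plates the day after seeding. Nuclei were stained and counted after 5 days. Relative viability is the nuclei count in treated wells over that in vehicle wells, taken as the median of duplicate plates.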

Compound in assay [1]: C[C@]12O[C@H](C[C@]1(O)CO)n1c3ccccc3c3c4c(c5c6ccccc6n2c5c31)CNC4=O [Lestaurtinib] + N=C(N)NC(=N)NCCc1ccccc1 [Phenformin] (partner 250 µM)
Put shortly:
as §1

Compound in assay [2]: C1/C(=C\C2=CC=CS2)/C(=O)/C(=C/C3=CC=CS3)/C1 + CC(=O)Nc1cccc(-n2c(=O)n(C3CC3)c(=O)c3c(Nc4ccc(I)cc4F)n(C)c(=O)c(C)c32)c1 [Trametinib] (partner 0.02 µM)
The method, boiled down:
as §1

Compound in assay [3]: C[C@]12O[C@H](C[C@]1(O)CO)n1c3ccccc3c3c4c(c5c6ccccc6n2c5c31)CNC4=O [Lestaurtinib] + CC1(C)CCC(c2ccc(Cl)cc2)=C(CN2CCN(c3ccc(C(=O)NS(=O)(=O)c4ccc(N[C@H](CCN5CCOCC5)CSc5ccccc5)c(S(=O)(=O)C(F)(F)F)c4)cc3)CC2)C1 [Navitoclax] (partner 0.5 µM)
The method, boiled down: as §1

In the case of NCI-H1651, the relative viability in the assay with Lestaurtinib + Olaparib (first compound 0.005 µM) is 0.166; with Lestaurtinib + Olaparib (first compound 0.01581 µM), 0.199; with Lestaurtinib + Olaparib (first compound 0.05 µM), 0.17; with Lestaurtinib + Olaparib (first compound 0.1581 µM) it was 0.169; in the assay with Lestaurtinib + Olaparib (first compound 0.5 µM) it was 0.147; in assay [1] (first compound 0.005 µM), 0.326. In addition, the relative viability stood at 0.429 in assay [1] (first compound 0.01581 µM); 0.295 in assay [1] (first compound 0.05 µM); 0.329 in assay [1] (first compound 0.1581 µM); 0.184 in assay [1] (first compound 0.5 µM); 0.861 in assay [2] (first compound 0.2 µM); 0.775 in assay [2] (first compound 0.6325 µM). Besides, the relative viability came out at 0.816 in assay [2] (first compound 2 µM); 0.807 in assay [2] (first compound 6.325 µM); 0.843 in assay [2] (first compound 20 µM); 1.12 in assay [3] (first compound 0.005 µM); 1.12 in assay [3] (first compound 0.01581 µM); 0.79 in assay [3] (first compound 0.05 µM). The relative viability in assay [3] (first compound 0.1581 µM) is 1.05; in assay [3] (first compound 0.5 µM), 0.471.
As for NCI-H1666, the relative viability was 0.779 in the assay with Lestaurtinib + Olaparib (first compound 0.005 µM); 0.799 with Lestaurtinib + Olaparib (first compound 0.01581 µM); 0.871 with Lestaurtinib + Olaparib (first compound 0.05 µM); 0.976 with Lestaurtinib + Olaparib (first compound 0.1581 µM); 0.827 with Lestaurtinib + Olaparib (first compound 0.5 µM); 0.613 in assay [1] (first compound 0.005 µM). The relative viability in assay [1] (first compound 0.01581 µM) came to 0.617; in assay [1] (first compound 0.05 µM), 0.668; in assay [1] (first compound 0.1581 µM), 0.561; in assay [1] (first compound 0.5 µM), 0.389; in assay [2] (first compound 0.2 µM), 0.855; in assay [2] (first compound 0.6325 µM) it was 0.86. Further, the relative viability in assay [2] (first compound 2 µM) amounted to 0.791; in assay [2] (first compound 6.325 µM), 0.861; in assay [2] (first compound 20 µM) it was 0.77; in assay [3] (first compound 0.005 µM) it was 1.18; in assay [3] (first compound 0.01581 µM), 1.05; in assay [3] (first compound 0.05 µM) it was 1.08. In addition, the relative viability in assay [3] (first compound 0.1581 µM) came to 0.581; in assay [3] (first compound 0.5 µM), 0.355.
NCI-H1734: the relative viability in the assay with Lestaurtinib + Olaparib (first compound 0.005 µM) amounted to 0.647; in the assay with Lestaurtinib + Olaparib (first compound 0.01581 µM), 0.626; with Lestaurtinib + Olaparib (first compound 0.05 µM) it was 0.578; with Lestaurtinib + Olaparib (first compound 0.1581 µM), 0.533; in the assay with Lestaurtinib + Olaparib (first compound 0.5 µM) it was 0.271; in assay [1] (first compound 0.005 µM), 0.385. The relative viability in assay [1] (first compound 0.01581 µM) was 0.391; in assay [1] (first compound 0.05 µM), 0.255; in assay [1] (first compound 0.1581 µM) it was 0.208; in assay [1] (first compound 0.5 µM) it was 0.18; in assay [2] (first compound 0.2 µM), 0.825; in assay [2] (first compound 0.6325 µM), 0.575. Further, the relative viability in assay [2] (first compound 2 µM) stood at 0.658; in assay [2] (first compound 6.325 µM), 0.578; in assay [2] (first compound 20 µM), 0.626; in assay [3] (first compound 0.005 µM) it was 0.849; in assay [3] (first compound 0.01581 µM), 0.957; in assay [3] (first compound 0.05 µM), 0.657. Also, the figures for the relative viability in assay [3] (first compound 0.1581 µM) and in assay [3] (first compound 0.5 µM) were 0.512 and 0.159, respectively.
Consider NCI-H1755, for which the relative viability was determined as 0.953 in the assay with Lestaurtinib + Olaparib (first compound 0.005 µM); 0.944 with Lestaurtinib + Olaparib (first compound 0.01581 µM); 0.753 in the assay with Lestaurtinib + Olaparib (first compound 0.05 µM); 0.628 with Lestaurtinib + Olaparib (first compound 0.1581 µM); 0.373 in the assay with Lestaurtinib + Olaparib (first compound 0.5 µM); 0.663 in assay [1] (first compound 0.005 µM). Also, the relative viability turned out to be 0.648 in assay [1] (first compound 0.01581 µM); 0.462 in assay [1] (first compound 0.05 µM); 0.336 in assay [1] (first compound 0.1581 µM); 0.287 in assay [1] (first compound 0.5 µM); 0.75 in assay [2] (first compound 0.2 µM); 0.768 in assay [2] (first compound 0.6325 µM). The relative viability in assay [2] (first compound 2 µM) is 0.794; in assay [2] (first compound 6.325 µM), 0.627; in assay [2] (first compound 20 µM), 0.714; in assay [3] (first compound 0.005 µM), 1.01; in assay [3] (first compound 0.01581 µM), 0.944; in assay [3] (first compound 0.05 µM), 0.633. Besides, the relative viability came out at 0.265 in assay [3] (first compound 0.1581 µM) and 0.223 in assay [3] (first compound 0.5 µM).
Turning to NCI-H1792, the relative viability with Lestaurtinib + Olaparib (first compound 0.005 µM) worked out at 0.593; in the assay with Lestaurtinib + Olaparib (first compound 0.01581 µM) it was 0.495; with Lestaurtinib + Olaparib (first compound 0.05 µM) it was 0.434; with Lestaurtinib + Olaparib (first compound 0.1581 µM), 0.267; with Lestaurtinib + Olaparib (first compound 0.5 µM), 0.164; in assay [1] (first compound 0.01581 µM) it was 0.423. Further, the relative viability in assay [1] (first compound 0.05 µM) came to 0.3; in assay [1] (first compound 0.1581 µM), 0.179; in assay [1] (first compound 0.5 µM), 0.178; in assay [2] (first compound 0.2 µM), 0.432; in assay [2] (first compound 0.6325 µM), 0.531; in assay [2] (first compound 2 µM), 0.533. Further, the relative viability in assay [2] (first compound 6.325 µM) was 0.525; in assay [2] (first compound 20 µM), 0.35; in assay [3] (first compound 0.005 µM) it was 0.322; in assay [3] (first compound 0.01581 µM), 0.86; in assay [3] (first compound 0.05 µM), 0.428; in assay [3] (first compound 0.1581 µM), 0.23. The relative viability in assay [3] (first compound 0.5 µM) stood at 0.166.
On to NCI-H1793, for which the relative viability in the assay with Lestaurtinib + Olaparib (first compound 0.005 µM) turned out to be 0.97; with Lestaurtinib + Olaparib (first compound 0.01581 µM), 1.05; in the assay with Lestaurtinib + Olaparib (first compound 0.05 µM), 0.549; with Lestaurtinib + Olaparib (first compound 0.1581 µM), 0.848; with Lestaurtinib + Olaparib (first compound 0.5 µM), 0.482; in assay [1] (first compound 0.005 µM) it was 0.353. The relative viability in assay [1] (first compound 0.01581 µM) came out at 0.447; in assay [1] (first compound 0.05 µM), 0.296; in assay [1] (first compound 0.1581 µM) it was 0.436; in assay [1] (first compound 0.5 µM), 0.3; in assay [2] (first compound 0.2 µM), 0.429; in assay [2] (first compound 0.6325 µM), 0.452. Besides, the relative viability in assay [2] (first compound 2 µM) was 0.49; in assay [2] (first compound 6.325 µM), 0.403; in assay [2] (first compound 20 µM), 0.463; in assay [3] (first compound 0.005 µM), 0.504; in assay [3] (first compound 0.01581 µM), 0.745; in assay [3] (first compound 0.05 µM), 0.393. Further, the relative viability in assay [3] (first compound 0.1581 µM) was found to be 0.334; in assay [3] (first compound 0.5 µM), 0.232.
Regarding NCI-H1915, the relative viability with Lestaurtinib + Olaparib (first compound 0.005 µM) was 0.259; in the assay with Lestaurtinib + Olaparib (first compound 0.01581 µM), 0.285; with Lestaurtinib + Olaparib (first compound 0.05 µM) it was 0.273; with Lestaurtinib + Olaparib (first compound 0.1581 µM), 0.296; with Lestaurtinib + Olaparib (first compound 0.5 µM) it was 0.143; in assay [1] (first compound 0.005 µM), 0.349. In addition, the relative viability in assay [1] (first compound 0.01581 µM) worked out at 0.37; in assay [1] (first compound 0.05 µM) it was 0.311; in assay [1] (first compound 0.1581 µM) it was 0.34; in assay [1] (first compound 0.5 µM), 0.204; in assay [2] (first compound 0.2 µM) it was 0.311; in assay [2] (first compound 0.6325 µM), 0.309. Moreover, the relative viability in assay [2] (first compound 2 µM) was 0.315; in assay [2] (first compound 6.325 µM), 0.262; in assay [2] (first compound 20 µM), 0.322; in assay [3] (first compound 0.005 µM), 0.766; in assay [3] (first compound 0.01581 µM) it was 0.801; in assay [3] (first compound 0.05 µM), 0.774. The results for the relative viability in assay [3] (first compound 0.1581 µM) and in assay [3] (first compound 0.5 µM) were 0.724 and 0.503, respectively.
